According to patent US20240196946A1, “METABOLICALLY MODIFIED VANILLA BEANS AND METHODS FOR PRODUCING SAME” (VANILLA TECHNOLOGIES LTD., priority 2021, published 2024):

How the values were obtained:
vanilla beans = assay: Vanillin content analysis by spectrophotometry of treated, cured vanilla beans; design: species or system Vanilla planifolia; conditions: relative to water control; FIG. 1; concentrations as in Table 1
Description: Target chemical compounds (set forth in table 1 below) were dissolved in water and pH adjusted to pH-7. Green beans cut into 1 cm pieces were placed in a 50 ml tube or intact beans placed in a bucket. A 10 ml solution containing one of the compounds indicated in Table 1 dissolved in water and 0.1% of each of the four surfactants tween 20, tween 80, span 20, and span 80 was added per each bean. The beans were incubated with the solution for 0.5-36 hours (e.g. overnight) at room temperature. The solution was the filtered out, the beans washed, and placed in a drying chamber with controlled temperature and humidity conditions to provide killing and curing as known in the art. The beans were weighted daily and at a 25-30% of their original weight, subjected to vanillin content analysis by spectrophotometry, as well as to a flavor test by a sensory panel.

Vanilla planifolia beans = assay: GC-MS headspace (SPME) analysis of treated vanilla beans (Example 2); conditions: for Phenylethyl Alcohol and 3-Phenyl-2-propenoic acid methyl ester / compounds giving a vinegar anisic and creamy flavor (acetic acid, creosol and 2,3-Butanediol): FIG. 3E, glutathione results not shown; for vanillin levels: GC-MS headspace vs control, FIG. 3A-3E; for constituents delivering vinegar anisic and floral flavors (acetic acid, creosol and acetoin): 3C
Excerpt: The treated vanilla beans were further analyzed by Gas Chromatography-Mass Spectrometry (GC-MS) in headspace mode with solid phase micro extraction (SPME) fiber. Compound identification was done by retention index and mass spectra. Compound flavor was obtained by searching a compound name in the following databases: https://pubchem.ncbi.nlm.nih.gov/ and […].com/.

Compound	vanillin content (abundance of vanillin) (vanilla beans)	Phenylethyl Alcohol and 3-Phenyl-2-propenoic acid methyl ester (Vanilla planifolia beans)	compounds giving a vinegar anisic and creamy flavor (acetic acid, creosol and 2,3-Butanediol) (Vanilla planifolia beans)	vanillin levels (Vanilla planifolia beans)	acetic acid, 2,3-Butanediol and acetoin (Vanilla planifolia beans; FIG. 3D)	level of compounds giving anisic and floral flavors (creosol and benzeneacetaldehyde) (Vanilla planifolia beans; FIG. 3D)	levels of constituents resulting in a nutty flavor (3-hydroxy-Benzaldehyde) (Vanilla planifolia beans; FIG. 3B)	constituents delivering vinegar anisic and floral flavors (acetic acid, creosol and acetoin) (Vanilla planifolia beans; FIG. 3B)	levels of constituents delivering a nutty coffee flavor (3-hydroxy-Benzaldehyde and 2-methyl-Butanal) (Vanilla planifolia beans; FIG. 3C)
N[C@@H](CCC(=O)N[C@@H](CS)C(=O)NCC(=O)O)C(=O)O [L- glutathione]	reduced vanillin content	induced the formation	reduced abundance	increase	–	–	–	–	–
N[C@@H](Cc1ccccc1)C(=O)O [L-Phenylalanine]	reduced vanillin content	induced the formation	reduced abundance	increase	–	–	–	–	–
CC(=O)C(=O)O [Pyruvic acid]	–	–	–	increase	formation	decreasing	–	–	–
O=C(O)c1ccccc1O [Salicylic acid]	large increase	–	–	marked increase	–	–	increased	decrease	–
Chitosan	–	–	–	milder increase	–	–	–	decrease	increased
